ChEMBL document CHEMBL4118056, “Antitubercular Activity of Mycelium-Associated Ganoderma Lanostanoids” (J Nat Prod, 2017)
≈ marks a conversion by molar mass, not a printed value.

Assays:
[1] = system: Mycobacterium tuberculosis; assay: Antitubercular activity against Mycobacterium tuberculosis H37Ra by GFP based microplate assay; type: functional
Vero [2] = assay: Cytotoxicity against African green monkey Vero cells by GFP based microplate assay; type: cell-based; conditions: Chlorocebus sabaeus
Vero [3] = assay: Cytotoxicity against African green monkey Vero cells; type: cell-based; conditions: Chlorocebus sabaeus
[4] = system: Mycobacterium tuberculosis; assay: Antitubercular activity against Mycobacterium tuberculosis H37Ra; type: functional

Structure (SMILES) | MIC [1] | IC50 (Vero [2]) | IC50 (Vero [3]) | MIC [4]
CC(=O)O[C@@H](C/C=C(\C)C(=O)O)[C@@H](C)[C@H]1CC[C@@]2(C)C3=C(CC[C@]12C)[C@@]1(C)CC[C@H](OC(C)=O)C(C)(C)[C@@H]1CC3=O | 6.25 µg/mL (≈ 11 µM) | 32 µM | – | –
CC(=O)O[C@@H](C/C=C(\C)C(=O)O)[C@@H](C)[C@H]1CC[C@@]2(C)C3=CC[C@H]4C(C)(C)[C@H](OC(C)=O)CC[C@]4(C)C3=CC[C@]12C | 50 µg/mL (≈ 90.1 µM) | 32 µM | – | –
CO[C@@H]1C[C@H]2C(C)(C)[C@@H](OC(C)=O)CC[C@]2(C)C2=C1[C@]1(C)[C@@H](OC(C)=O)C[C@H]([C@H](C)CC/C=C(\C)C(=O)O)[C@@]1(C)CC2 | 3.13 µg/mL (≈ 5.33 µM) | 30 µM | – | –
CO[C@@H]1C[C@H]2C(C)(C)[C@H](OC(C)=O)CC[C@]2(C)C2=C1[C@]1(C)[C@@H](OC(C)=O)C[C@H]([C@H](C)CC/C=C(\C)C(=O)O)[C@@]1(C)CC2 | 50 µg/mL (≈ 85.2 µM) | > 85 µM | – | –
CC(=O)O[C@@H](C/C=C(\C)C(=O)O)[C@@H](C)[C@H]1C[C@H](OC(C)=O)[C@@]2(C)C3=C(CC[C@]12C)[C@@]1(C)CC[C@@H](OC(C)=O)C(C)(C)[C@@H]1C[C@H]3O | 12.5 µg/mL (≈ 19.8 µM) | 28 µM | – | –
CC(=O)O[C@H]1CC[C@]2(C)C3=CC[C@]4(C)[C@@H]([C@H](C)CC/C=C(\C)C(=O)O)C[C@H](O)[C@@]4(C)C3=CC[C@H]2C1(C)C | 6.25 µg/mL (≈ 12.2 µM) | 13 µM | – | –
CC(=O)O[C@@H](C/C=C(\C)C(=O)O)[C@@H](C)[C@H]1C[C@H](O)[C@@]2(C)C3=C(CC[C@]12C)[C@@]1(C)CC[C@H](OC(C)=O)C(C)(C)[C@@H]1C[C@H]3O | 12.5 µg/mL (≈ 21.2 µM) | 83 µM | – | –
CC(=O)O[C@H]1C[C@H]([C@H](C)CC/C=C(\C)C(=O)O)[C@@]2(C)CCC3=C(CC[C@H]4C(C)(C)C(=O)CC[C@]34C)[C@]12C | 50 µg/mL (≈ 97.5 µM) | > 98 µM | – | –
CO[C@@H]1C[C@H]2C(C)(C)C(=O)CC[C@]2(C)C2=C1[C@]1(C)[C@@H](OC(C)=O)C[C@H]([C@H](C)[C@H](C/C=C(\C)C(=O)O)OC(C)=O)[C@@]1(C)CC2 | > 50 µg/mL | > 83 µM | – | –
CC(=O)O[C@H]1CC[C@]2(C)C3=CC[C@]4(C)[C@@H]([C@H](C)CC/C=C(\C)C(=O)O)C[C@H](OC(C)=O)[C@@]4(C)C3=CC[C@H]2C1(C)C | 0.391 µg/mL (≈ 0.705 µM) | 32 µM | – | –
CC(=O)O[C@H]1CC[C@]2(C)C3=C([C@H](OC(C)=O)C[C@H]2C1(C)C)[C@]1(C)[C@@H](O)C[C@H]([C@H](C)CC/C=C(\C)C(=O)O)[C@@]1(C)CC3 | 25 µg/mL (≈ 43.6 µM) | 31 µM | – | –
CC(=O)O[C@H]1CC[C@]2(C)C3=CC[C@]4(C)[C@@H]([C@H](C)CC/C=C(\C)C(=O)O)CC[C@@]4(C)C3=CC[C@H]2C1(C)C | > 50 µg/mL | > 101 µM | – | –
CO[C@@H]1C[C@H]2C(C)(C)[C@H](OC(C)=O)CC[C@]2(C)C2=C1[C@]1(C)[C@@H](O)C[C@H]([C@H](C)CC/C=C(\C)C(=O)O)[C@@]1(C)CC2 | 50 µg/mL (≈ 91.8 µM) | 87 µM | – | –
CC(=O)O[C@H]1CC[C@]2(C)C3=C(C(=O)C[C@H]2C1(C)C)[C@]1(C)[C@@H](O)C[C@H]([C@H](C)CC/C=C(\C)C(=O)O)[C@@]1(C)CC3 | 50 µg/mL (≈ 94.6 µM) | 92 µM | – | –
CC(=O)O[C@@H](C/C=C(\C)C(=O)O)[C@@H](C)[C@H]1CC[C@@]2(C)C3=C(CC[C@]12C)[C@@]1(C)CC[C@H](OC(C)=O)C(C)(C)[C@@H]1C[C@H]3O | 25 µg/mL (≈ 43.6 µM) | 84 µM | – | –
CO[C@@H]1C[C@H]2C(C)(C)C(=O)CC[C@]2(C)C2=C1[C@]1(C)CC[C@H]([C@H](C)CC/C=C(\C)C(=O)O)[C@@]1(C)CC2 | 25 µg/mL (≈ 51.6 µM) | > 103 µM | – | –
CC(=O)O[C@@H](C/C=C(\C)C(=O)O)[C@@H](C)[C@H]1C[C@H](O)[C@@]2(C)C3=C(CC[C@]12C)[C@@]1(C)CC[C@H](OC(C)=O)C(C)(C)[C@@H]1C[C@H]3OC(C)=O | 12.5 µg/mL (≈ 19.8 µM) | 77 µM | – | –

Structure (SMILES) | MIC [1] | IC50 (Vero [2]) | IC50 (Vero [3]) | MIC [4]
CC(=O)O[C@@H](C/C=C(\C)C(=O)O)[C@@H](C)[C@H]1C[C@H](OC(C)=O)[C@@]2(C)C3=CC[C@H]4C(C)(C)C(=O)CC[C@]4(C)C3=CC[C@]12C | 25 µg/mL (≈ 44 µM) | 87 µM | – | –
CC(=O)O[C@@H](C/C=C(\C)C(=O)O)[C@@H](C)[C@H]1CC[C@@]2(C)C3=C(CC[C@]12C)[C@@]1(C)CC[C@@H](O)C(C)(C)[C@@H]1CC3=O | 50 µg/mL (≈ 94.6 µM) | 95 µM | – | –
CC(=O)O[C@@H](C/C=C(\C)C(=O)O)[C@@H](C)[C@H]1CC[C@@]2(C)C3=C(CC[C@]12C)[C@@]1(C)CC[C@H](O)C(C)(C)[C@@H]1CC3=O | 1.56 µg/mL (≈ 2.95 µM) | 87 µM | – | –
CO[C@@H]1C[C@H]2C(C)(C)[C@H](OC(C)=O)CC[C@]2(C)C2=C1[C@]1(C)CC[C@H]([C@H](C)[C@H](C/C=C(\C)C(=O)O)OC(C)=O)[C@@]1(C)CC2 | 50 µg/mL (≈ 85.2 µM) | 38 µM | – | –
CC(=O)O[C@H]1C[C@H]([C@H](C)CC/C=C(\C)C(=O)O)[C@@]2(C)CC=C3C(=CC[C@H]4C(C)(C)[C@H](O)CC[C@]34C)[C@]12C | 25 µg/mL (≈ 48.8 µM) | 94 µM | – | –
CC(=O)O[C@@H](C/C=C(\C)C(=O)O)[C@@H](C)[C@H]1C[C@H](OC(C)=O)[C@@]2(C)C3=CC[C@H]4C(C)(C)[C@@H](O)CC[C@]4(C)C3=CC[C@]12C | > 50 µg/mL | 33 µM | – | –
CO[C@@H]1C[C@H]2C(C)(C)[C@@H](OC(C)=O)CC[C@]2(C)C2=C1[C@]1(C)[C@@H](O)C[C@H]([C@H](C)[C@H](C/C=C(\C)C(=O)O)OC(C)=O)[C@@]1(C)CC2 | – | – | 32 µM | 50 µg/mL (≈ 82.9 µM)
CC(=O)O[C@H]1C[C@H]([C@H](C)CC/C=C(\C)C(=O)O)[C@@]2(C)CCC3=C(CC[C@H]4C(C)(C)[C@@H](O)CC[C@]34C)[C@]12C | 12.5 µg/mL (≈ 24.3 µM) | > 96 µM | – | –
CC(=O)O[C@H]1CC[C@]2(C)C3=C([C@H](O)C[C@H]2C1(C)C)[C@]1(C)[C@@H](O)C[C@H]([C@H](C)CC/C=C(\C)C(=O)O)[C@@]1(C)CC3 | 50 µg/mL (≈ 94.2 µM) | 39 µM | – | –
CC(=O)O[C@H]1C[C@H]([C@H](C)CC/C=C(\C)C(=O)O)[C@@]2(C)CC=C3C(=CC[C@H]4C(C)(C)C(=O)CC[C@]34C)[C@]12C | 12.5 µg/mL (≈ 24.5 µM) | > 98 µM | – | –
CC(=O)O[C@@H]1C[C@H]2C(C)(C)C(=O)CC[C@]2(C)C2=C1[C@]1(C)[C@@H](O)C[C@H]([C@H](C)CC/C=C(\C)C(=O)O)[C@@]1(C)CC2 | 25 µg/mL (≈ 47.3 µM) | > 95 µM | – | –
CO[C@@H]1C[C@H]2C(C)(C)[C@H](OC(C)=O)CC[C@]2(C)C2=C1[C@]1(C)[C@@H](OC(C)=O)C[C@H]([C@H](C)[C@H](C/C=C(\C)C(=O)O)OC(C)=O)[C@@]1(C)CC2 | 12.5 µg/mL (≈ 19.4 µM) | 26 µM | – | –
C/C(=C\CC[C@@H](C)[C@H]1CC[C@@]2(C)C3=C(CC[C@]12C)[C@@]1(C)CCC(=O)C(C)(C)[C@@H]1C[C@H]3O)C(=O)O | 3.13 µg/mL (≈ 6.65 µM) | 103 µM | – | –
CC(=O)O[C@@H](C/C=C(\C)C(=O)O)[C@@H](C)[C@H]1C[C@H](O)[C@@]2(C)C3=C(CC[C@]12C)[C@@]1(C)CCC(=O)C(C)(C)[C@@H]1C[C@H]3O | > 50 µg/mL | > 92 µM | – | –
CC(=O)O[C@H]1C[C@H]([C@H](C)CC/C=C(\C)C(=O)O)[C@@]2(C)CCC3=C([C@H](O)C[C@H]4C(C)(C)C(=O)CC[C@]34C)[C@]12C | 50 µg/mL (≈ 94.6 µM) | > 95 µM | – | –
C/C(=C\C[C@H](O)[C@@H](C)[C@H]1CC[C@@]2(C)C3=C(CC[C@]12C)[C@@]1(C)CCC(=O)C(C)(C)[C@@H]1CC3)C(=O)O | 50 µg/mL (≈ 106 µM) | 105 µM | – | –
CC(=O)O[C@@H](C/C=C(\C)C(=O)O)[C@@H](C)[C@H]1C[C@H](O)[C@@]2(C)C3=CC[C@H]4C(C)(C)[C@@H](O)CC[C@]4(C)C3=CC[C@]12C | 6.25 µg/mL (≈ 11.8 µM) | 95 µM | – | –
